From patent US20050009154A1, “Biocatalytic preparation of 1-cyano-cyclohexaneacetic acid” (Pfizer Inc, priority 2003, published 2005)
≈ marks a conversion by molar mass, not a printed value.

Experiment: aqueous solubility of the starting material
Type: physicochemical
Settings: aqueous buffer; 25° C., 20 mM phosphate buffer, pH 7; read-out: water solubility (aqueous solubility limit)
Experimental: The enzyme-catalyzed conversion of II to I can be carried out by contacting II with the enzyme catalyst in an aqueous reaction mixture. Compound II, the starting material, which is only moderately water soluble, (ca. 10 mM, 25° C., 20 mM phosphate buffer, pH 7), can be added to an aqueous reaction containing the enzyme catalyst at levels exceeding its aqueous solubility limit. Thus reaction mixtures initially consist of two phases, an aqueous phase containing dissolved II and the enzyme catalyst, and a solid phase containing undissolved II. At complete conversion of II, a single phase containing compound I and the enzyme catalyst remains. The enzyme catalyzed conversion of II to I can be carried out with levels of compound II from about 0.1 g/L to 148 g/L, with a preferred range of about 0.1 g/L to 90 g/L. The enzyme catalyst concentrations used in the present invention depend on the specific activity of the enzyme catalyst and is chosen to obtain the desired rate of reaction.

Compound: N#CCC1(C#N)CCCCC1 [Compound II, 1-cyanocyclohexaneacetonitrile]
- solubility: ~10 mM (≈ 1480 µg/mL)
